# ChEMBL document CHEMBL4368907 (J Med Chem, 2019)
# Numbered stars: 1 amine (or outer) side, 2 acyl side, 3 side chain; on linkers, the order of the positions; unused ones are H or OH. Square brackets hold non-standard residues; d marks the D form. Side chains are listed from the residue outwards. Peptide text beside a SMILES is read from it. * marks the point of attachment. Phe(4-CH2SO3H) = N[C@@H](Cc1ccc(CS(=O)(=O)O)cc1)C(=O)O; C18 diacid = O=C(O)CCCCCCCCCCCCCCCCC(=O)*; γGlu = O=C(O)[C@H](CCC(=O)[*:2])N[*:1]; NMeF = CN[C@@H](Cc1ccccc1)C(=O)O; NMeD = CN[C@@H](CC(=O)O)C(=O)O; Nle = CCCC[C@H](N)C(=O)O; X1 = O=C(Cc1ccc(O)cc1)*; AEEA = NCCOCCOCC(=O)O
# Tests used:
# [1] = Drug level in Ellegaard Gottingen minipig plasma treated with C18d-gammaGlu-(OEG)2-Asp-Phe(4sm)-Nle-Gly-Trp-Nle-DMeAspMePhe-NH2 at 5 nmol/kg, iv administered as single dose by LC-MS/MS analysis; type: ADME, organism-based, Sus scrofa; settings: pig, in vivo
# [2] = target: T1, Gastrin/cholecystokinin type B receptor (Homo sapiens, UniProt P32239); experiment: Agonist activity at human CCK2R expressed in human 1321N1 cells assessed as IP1 accumulation after 1 hr by HTRF assay; type: functional, cell-based
# T1 sequence (P32239 whole entry): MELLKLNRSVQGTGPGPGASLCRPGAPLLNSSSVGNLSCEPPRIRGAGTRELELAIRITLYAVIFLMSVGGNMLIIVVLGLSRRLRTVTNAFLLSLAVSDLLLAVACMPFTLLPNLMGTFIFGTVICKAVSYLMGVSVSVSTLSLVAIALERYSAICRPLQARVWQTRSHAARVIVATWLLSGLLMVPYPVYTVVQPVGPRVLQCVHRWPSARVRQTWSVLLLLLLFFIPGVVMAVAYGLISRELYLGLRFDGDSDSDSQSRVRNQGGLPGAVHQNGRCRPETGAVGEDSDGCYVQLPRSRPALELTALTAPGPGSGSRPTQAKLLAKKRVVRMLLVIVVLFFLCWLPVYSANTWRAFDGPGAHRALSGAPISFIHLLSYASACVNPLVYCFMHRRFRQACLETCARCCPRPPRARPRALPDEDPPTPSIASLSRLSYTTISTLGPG
# [3] = target: T1, Gastrin/cholecystokinin type B receptor; experiment: Displacement of [125I]-CCK-8 from human CCK2R expressed in human 1321N1 cell membranes after 2 hrs by SPA assay
# [4] = target: T2, Cholecystokinin receptor type A (Homo sapiens, UniProt P32238); experiment: Displacement of [125I]-CCK-8 from human CCK1R expressed in human 1321N1 cell membranes after 2 hrs by SPA assay
# T2 sequence (P32238 whole entry): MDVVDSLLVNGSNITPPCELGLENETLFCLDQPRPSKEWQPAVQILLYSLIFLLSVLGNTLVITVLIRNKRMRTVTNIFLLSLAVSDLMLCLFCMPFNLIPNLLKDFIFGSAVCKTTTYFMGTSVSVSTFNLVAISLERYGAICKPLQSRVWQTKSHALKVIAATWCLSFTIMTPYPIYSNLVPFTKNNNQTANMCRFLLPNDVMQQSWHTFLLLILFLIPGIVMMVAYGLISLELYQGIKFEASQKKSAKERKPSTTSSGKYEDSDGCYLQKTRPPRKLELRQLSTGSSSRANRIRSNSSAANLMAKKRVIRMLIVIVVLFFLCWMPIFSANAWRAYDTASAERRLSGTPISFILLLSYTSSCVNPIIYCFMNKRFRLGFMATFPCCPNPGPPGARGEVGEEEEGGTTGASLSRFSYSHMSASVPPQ
# [5] = Toxicity in lean Landrace Yorkshire Duroc pig at 30 nmol/kg, sc measured up to 96 hrs post dose; type: organism-based, Sus scrofa; settings: in vivo
# [6] = target: T2, Cholecystokinin receptor type A; experiment: Agonist activity at human CCK1R expressed in human 1321N1 cells assessed as IP1 accumulation after 1 hr by HTRF assay; type: functional, cell-based
# [7] = Terminal half life in Ellegaard Gottingen minipig at 5 nmol/kg, iv by LC-MS/MS analysis; type: ADME, organism-based, Sus scrofa; settings: pig, in vivo, read-out: beta t1/2 (converted)
# [8] = Plasma concentration in lean Landrace Yorkshire Duroc pig at 30 nmol/kg, sc measured after 96 hrs post dose; type: ADME, organism-based, Sus scrofa
# Sus scrofa [9] = experiment: Anti-obesity activity in lean Landrace Yorkshire Duroc pig assessed as food intake at 30 nmol/kg, sc measured at 48 to 72 hrs post dose (reference value: 1.8 to 2.1 kg); type: functional
# Sus scrofa [10] = experiment: Anti-obesity activity in lean Landrace Yorkshire Duroc pig assessed as food intake at 30 nmol/kg, sc measured at 24 to 48 hrs post dose (reference value: 1.8 to 2.1 kg); type: functional
# Sus scrofa [11] = experiment: Anti-obesity activity in lean Landrace Yorkshire Duroc pig assessed as food intake at 30 nmol/kg, sc measured at 72 to 96 hrs post dose (reference value: 1.8 to 2.1 kg); type: functional
# Sus scrofa [12] = experiment: Anti-obesity activity in lean Landrace Yorkshire Duroc pig assessed as food intake at 30 nmol/kg, sc measured up to 24 hrs post dose (reference value: 1.8 to 2.1 kg); type: functional
Drug uptake [1],pEC50 [2],pIC50 [3],pIC50 [4],pEC50 [6],half-life [7],concentration at 96 h [8],Compound,Activity [5],Activity (Sus scrofa [9]),Activity (Sus scrofa [10]),Activity (Sus scrofa [11]),Activity (Sus scrofa [12])
Active,–,–,–,–,–,–,O=C(O)CCCCCCCCCCCCCCCCC(=O)N[C@@H](CCC(=O)NCCOCCOCC(=O)NCCOCCOCC(=O)N[C@@H](CC(=O)O)C(=O)N[C@@H](Cc1ccc(CS(=O)(=O)O)cc1)C(=O)O)C(=O)O,–,–,–,–,–
–,< 6,5.31,8.99,9.81,45 h,8.5 nM,CCCC[C@H](NC(=O)[C@H](Cc1c[nH]c2ccccc12)NC(=O)CNC(=O)[C@H](CC(C)C)NC(=O)[C@H](Cc1ccc(O)cc1)NC(=O)[C@H](CC(=O)O)NC(=O)COCCOCCNC(=O)COCCOCCNC(=O)CC[C@H](NC(=O)CCCCCCCCCCCCCCCCC(=O)O)C(=O)O)C(=O)N(C)[C@@H](CC(=O)O)C(=O)N(C)[C@@H](Cc1ccccc1)C(N)=O [listing 1 of 2 here],Non-Toxic,–,–,–,–
–,–,–,–,–,–,–,CCCC[C@H](NC(=O)[C@H](Cc1c[nH]c2ccccc12)NC(=O)CNC(=O)[C@H](CC(C)C)NC(=O)[C@H](Cc1ccc(O)cc1)NC(=O)[C@H](CC(=O)O)NC(=O)COCCOCCNC(=O)COCCOCCNC(=O)CC[C@H](NC(=O)CCCCCCCCCCCCCCCCC(=O)O)C(=O)O)C(=O)N(C)[C@@H](CC(=O)O)C(=O)N(C)[C@@H](Cc1ccccc1)C(N)=O [listing 2 of 2 here],–,2.6 kg,2.2 kg,2.3 kg,2.3 kg
–,< 6,5.43,9.28,9.8,7.1 h,< 0.9 nM,CCCC[C@H](NC(=O)[C@H](Cc1c[nH]c2ccccc12)NC(=O)CNC(=O)[C@H](CCCCNC(=O)COCCOCCNC(=O)COCCOCCNC(=O)CC[C@H](NC(=O)CCCCCCCCCCCCCCCCC(=O)O)C(=O)O)NC(=O)Cc1ccc(O)cc1)C(=O)N(C)[C@@H](CC(=O)O)C(=O)N(C)[C@@H](Cc1ccccc1)C(N)=O (X1-K([AEEA-AEEA-γGlu-C18 diacid])GW[Nle][NMeD][NMeF]-NH2) [listing 1 of 2 here],Non-Toxic,–,–,–,–
–,–,–,–,–,–,–,CCCC[C@H](NC(=O)[C@H](Cc1c[nH]c2ccccc12)NC(=O)CNC(=O)[C@H](CCCCNC(=O)COCCOCCNC(=O)COCCOCCNC(=O)CC[C@H](NC(=O)CCCCCCCCCCCCCCCCC(=O)O)C(=O)O)NC(=O)Cc1ccc(O)cc1)C(=O)N(C)[C@@H](CC(=O)O)C(=O)N(C)[C@@H](Cc1ccccc1)C(N)=O (X1-K([AEEA-AEEA-γGlu-C18 diacid])GW[Nle][NMeD][NMeF]-NH2) [listing 2 of 2 here],–,2.1 kg,2.2 kg,2.4 kg,2.1 kg
Active,–,–,–,–,–,–,CCCC[C@H](NC(=O)[C@H](Cc1ccc(CS(=O)(=O)O)cc1)NC(=O)[C@H](CC(=O)O)NC(=O)COCCOCCNC(=O)COCCOCCNC(=O)CC[C@H](NC(=O)CCCCCCCCCCCCCCCCC(=O)O)C(=O)O)C(=O)NCC(=O)O ({C18 diacid-γGlu-AEEA-AEEA}-D[Phe(4-CH2SO3H)][Nle]G-OH),–,–,–,–,–
